# Experimental data taken from patent EP2276483B1, “SOLID FORMS COMPRISING (+)-2-[1-(3-ETHOXY-4-METHOXYPHENYL)-2-METHYLSULFONYLETHYL]-4-ACETYLAMINOISOINDOLINE-1,3-DIONE, COMPOSITIONS THEREOF, AND USES THEREOF” (CELGENE CORPORATION, priority 2008, dated 2009).
# Tests used:
# human PDE2 = human PDE2 (Homo sapiens, UniProt O00408); assay: PDE2 enzyme assay; type: biochemical
# [1] = tested on: LPS-induced pulmonary neutrophilia; assay: LPS-induced lung neutrophilia ferret model; type: in vivo, ferrets (Mustela Pulorius Euro); settings: Mustela putorius, po; conscious ferret, p.o.; read-out: Inhibition of LPS-induced neutrophilia (ED50 mg/kg)
# Excerpt: The conscious ferret model has been used to investigate anti-inflammatory, emetic and behavioral effects of PDE4 inhibitors when administered by the oral (p.o.) route. From these experiments, a therapeutic index (TI) for each PDE4 inhibitor may be determined. The TI has been calculated by dividing the threshold dose for causing emetic episodes and behavioral changes by the anti-inflammatory dose (dose that causes 50% inhibition of the LPS-induced neutrophilia).
# Male ferrets (Mustela Pulorius Euro, weighing 1 - 2 kg). Ferrets were supplied either by Bury Green Farm or Misay Consultancy. Following transport, the animals were allowed to acclimatize in the holding rooms for a period of not less than seven days. The diet comprised SDS diet C pelleted food given ad lib with Whiskers™ cat food given three times per week. Water was pasteurized animal grade drinking water and was changed daily. […]
# Thirty minutes after p.o. dosing with compound or vehicle control, the ferrets were placed into sealed Perspex containers and exposed to an aerosol of LPS (100 µg/ml) for 10 minutes. […] Observation continued for a period of at least 2.5 hours post p.o. dosing and emetic episodes and behavioral changes were recorded. […]
# The bronchoalveolar lavage (BAL) samples were centrifuged at 1,500 rpm for 5 minutes. […] From this, the total number of neutrophils in the BAL was determined. […]
# [2] = target: PDE3 from human platelets (Homo sapiens, UniProt Q14432); assay: PDE3 enzyme assay; type: biochemical
# IL-8 = assay: Zymosan-induced IL-8 production in human neutrophils; type: cell-based; settings: Neutrophil
# Description: Zymosan A, or the heat-killed yeast Saccharomyces cerevisiae, binds to the adhesion molecule Mac-1 on the neutrophil surface and triggers phagocytosis, cell activation and IL-8 production. Zymosan-induced IL-8 production was measured as previously described (Au et al., 1998, Brit. J. Pharm., 123:1260-1266) with the following modifications. Human neutrophils were purified as described above, plated in 96-well tissue culture plates at 3x10^5 cells/well in complete medium, treated with compounds at 10, 2, 0.4, 0.08, 0.016, 0.0032, 0.00064, and 0 µM in duplicate in a final DMSO concentration of 0.1% for 1 hour at 37°C 5% CO2. Neutrophils were then stimulated with unopsonized, boiled Zymosan A (Sigma) at 2.5 x 10^5 particles/well for 18 hours. Supernatants were harvested and tested for IL-8 by ELISA (R&D Systems).
# [3] = Aqueous equilibrium solubility in pH 7.4 buffer; type: physicochemical; settings: pH 7.4
# Description: Equilibrium solubilities were measured in pH 7.4 aqueous buffer. The pH 7.4 buffer was prepared by adjusting the pH of a 0.07 M NaH2PO4 solution to 7.4 with 10 N NaOH. The ionic strength of the solution was 0.15. At least 1 mg of powder was combined with 1 ml of buffer to make >1 mg/ml mixture. These samples were shaken for >2 hours and left to stand overnight at room temperature. The samples were then filtered through a 0.45-µm Nylon syringe filter that was first saturated with the sample. The filtrate was sampled twice, consecutively. The filtrate was assayed by HPLC against standards prepared in 50% methanol.
# TNF-α = assay: LPS-induced TNF-α production from human PBMC; type: cell-based; settings: LPS 100 ng/ml
# Description: Lipopolysaccharide (LPS) is an endotoxin produced by gram-negative bacteria such as E. coli which induces production of many pro-inflammatory cytokines, including TNF-α. In peripheral blood mononuclear cells (PBMC), the TNF-α produced in response to LPS is derived from monocytes, which comprise approximately 5-20% of the total PBMC. Compounds were tested for the ability to inhibit LPS-induced TNF-α production from human PBMC as previously described (Muller et al., 1996, J. Med. Chem., 39:3238). PBMC from normal donors were obtained by Ficoll Hypaque (Pharmacia, Piscataway, NJ, USA) density centrifugation. Cells were cultured in RPMI (Life Technologies, Grand Island, NY, USA) supplemented with 10% AB± human serum (Gemini Bio-products, Woodland, CA, USA), 2 mM L-glutamine, 100 U/ml penicillin, and 100 µg/ml streptomycin (Life Technologies).
# PBMC (2 x 10^5 cells) were plated in 96-well flat-bottom Costar tissue culture plates (Coming, NY, USA) in triplicate. Cells were stimulated with LPS (Sigma, St. Louis, MO, USA) at 100 ng/ml in the absence or presence of compounds. Compounds (Celgene Corp., Warren, NJ, USA) were dissolved in DMSO (Sigma) and further dilutions were done in culture medium immediately before use. The final DMSO concentration in all samples was 0.25%. Compounds were added to cells one hour before LPS stimulation. […]
# bovine PDE1 = assay: PDE1 enzyme assay; type: biochemical
# human PDE2, sequence (O00408 whole entry): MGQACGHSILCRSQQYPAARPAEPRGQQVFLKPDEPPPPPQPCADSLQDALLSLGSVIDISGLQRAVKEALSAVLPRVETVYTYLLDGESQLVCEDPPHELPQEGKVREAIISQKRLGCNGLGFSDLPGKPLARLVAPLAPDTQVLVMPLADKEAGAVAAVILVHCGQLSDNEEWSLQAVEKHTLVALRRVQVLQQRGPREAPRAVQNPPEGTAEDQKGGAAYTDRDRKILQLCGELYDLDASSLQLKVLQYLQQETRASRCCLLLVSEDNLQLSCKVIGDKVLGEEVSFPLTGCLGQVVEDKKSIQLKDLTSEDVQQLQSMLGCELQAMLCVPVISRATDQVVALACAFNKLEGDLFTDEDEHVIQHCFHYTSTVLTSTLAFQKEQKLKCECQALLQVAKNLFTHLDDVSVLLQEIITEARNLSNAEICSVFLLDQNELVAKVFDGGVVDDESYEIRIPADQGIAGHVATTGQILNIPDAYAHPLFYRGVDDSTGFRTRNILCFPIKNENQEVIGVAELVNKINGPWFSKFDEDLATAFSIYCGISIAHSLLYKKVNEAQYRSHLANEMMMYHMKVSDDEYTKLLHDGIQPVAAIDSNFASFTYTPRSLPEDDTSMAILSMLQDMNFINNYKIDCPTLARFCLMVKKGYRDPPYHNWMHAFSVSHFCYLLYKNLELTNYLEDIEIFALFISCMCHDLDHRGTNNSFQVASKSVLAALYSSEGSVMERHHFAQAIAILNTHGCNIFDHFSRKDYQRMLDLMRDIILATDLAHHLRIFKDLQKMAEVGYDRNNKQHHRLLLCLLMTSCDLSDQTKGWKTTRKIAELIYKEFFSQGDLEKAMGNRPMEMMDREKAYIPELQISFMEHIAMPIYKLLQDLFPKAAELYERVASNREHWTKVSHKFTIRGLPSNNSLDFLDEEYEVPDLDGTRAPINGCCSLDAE
# PDE3 from human platelets, sequence (Q14432 whole entry): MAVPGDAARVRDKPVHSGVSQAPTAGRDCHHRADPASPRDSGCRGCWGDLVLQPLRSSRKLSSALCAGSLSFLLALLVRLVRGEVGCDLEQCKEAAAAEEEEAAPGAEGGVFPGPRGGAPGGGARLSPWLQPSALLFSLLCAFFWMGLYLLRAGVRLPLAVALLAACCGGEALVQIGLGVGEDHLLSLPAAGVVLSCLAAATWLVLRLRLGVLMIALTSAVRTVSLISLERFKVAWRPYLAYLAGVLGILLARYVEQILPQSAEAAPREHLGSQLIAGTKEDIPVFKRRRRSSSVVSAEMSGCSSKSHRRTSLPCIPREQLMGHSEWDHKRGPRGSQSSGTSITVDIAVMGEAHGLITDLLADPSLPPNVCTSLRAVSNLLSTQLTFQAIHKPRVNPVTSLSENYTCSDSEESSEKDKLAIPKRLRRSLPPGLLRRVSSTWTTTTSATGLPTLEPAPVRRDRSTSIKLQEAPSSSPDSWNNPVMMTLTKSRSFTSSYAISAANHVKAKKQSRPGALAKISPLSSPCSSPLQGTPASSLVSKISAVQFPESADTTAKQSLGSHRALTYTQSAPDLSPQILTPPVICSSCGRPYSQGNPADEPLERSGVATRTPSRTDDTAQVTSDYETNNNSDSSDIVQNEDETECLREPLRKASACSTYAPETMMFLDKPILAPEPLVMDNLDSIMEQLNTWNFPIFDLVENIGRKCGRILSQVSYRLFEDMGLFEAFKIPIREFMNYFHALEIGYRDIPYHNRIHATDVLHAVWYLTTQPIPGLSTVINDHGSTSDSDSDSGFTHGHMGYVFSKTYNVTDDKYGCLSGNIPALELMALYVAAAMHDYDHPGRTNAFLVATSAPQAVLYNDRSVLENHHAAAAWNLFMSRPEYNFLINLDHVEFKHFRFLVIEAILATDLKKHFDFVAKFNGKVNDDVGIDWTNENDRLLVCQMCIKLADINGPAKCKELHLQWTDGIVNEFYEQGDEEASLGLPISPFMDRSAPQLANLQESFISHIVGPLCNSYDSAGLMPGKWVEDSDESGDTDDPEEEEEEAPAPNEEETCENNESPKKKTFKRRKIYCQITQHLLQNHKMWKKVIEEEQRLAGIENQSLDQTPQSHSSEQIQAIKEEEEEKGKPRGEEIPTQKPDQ
smiles,measurement,setting,value
"CCOc1cc(C(CS(C)(=O)=O)N2C(=O)c3cccc(NC(C)=O)c3C2=O)ccc1OC (single isomer, unassigned; (+)) [Compound A, (+)-2-[1-(3-ethoxy-4-methoxyphenyl)-2-methylsulfonylethyl]-4-acetylaminoisoindoline-1,3-dione]",PDE Specificity Ratio PDE4/PDE2,human PDE2; from above data,>10000 fold
same,inhibition at 10 µM,human PDE2; read-out: PDE2(% inhib at 10 µM),6%
same,ED50,[1],0.8 mg/kg
same,PDE Specificity Ratio PDE4/PDE3,[2]; from above data,>1200 fold
same,inhibition at 10 µM,[2]; read-out: PDE3 (% inhib at 10 µM),20%
same,IC50,IL-8,94 nM
same,Measured solubility,[3],0.012 mg/mL
same,greater aqueous solubility than the racemic mixture,[3],3.5 fold
same,IC50,TNF-α,77 nM
same,PDE1 (% inhib at 10 µM),bovine PDE1; 10 µM,23%
same,PDE Specificity Ratio PDE4/PDE1,bovine PDE1; from above data,>500 fold
